By pKi is commonly meant −log10 of the Ki, conventionally taken in molar units. What is called pIC50 is −log10 of the IC50, conventionally taken in molar units.

pIC50, pKi: −log10 of the molar value. Where a name gives a salt, the structure may show the parent alone. Where only a bound is given, the exact number is not on record here.

Among the data in patent US20150322083A1, “(THIENO[2,3-b][1,5]BENZOXAZEPIN-4-YL)PIPERAZIN-1-YL COMPOUNDS AS SELECTIVE 5-HT2A INVERSE AGONISTS” (Eli Lilly and Company, priority 2014, published 2015) are Ki and IC50 values, retold here.

Assay [1] has as its target Adrenergic alpha2A (Homo sapiens, UniProt P08913). As to the kind of experiment: Adrenergic alpha2A binding. As for the experimental part: (§1) Curves are evaluated using a 4-parameter logistic nonlinear equation to obtain the concentration of competitor causing 50% inhibition of radioligand binding (IC50). Equilibrium dissociation constants (Ki) are calculated according to the equation Ki=IC50/(1+L/Kd), where L equals the concentration of radioligand used in the experiment and Kd equals the equilibrium dissociation constant of the radioligand for the receptor, determined from standard saturation analysis or homologous competition experiments. Reported values for Ki, where n values are indicated, are shown as geometric mean±the standard error of the mean (SEM), with the number of replicate determinations indicated by n. Geometric means are calculated by the equation GeoMean=10̂(Average(log Ki 1+log Ki 2+ . . . log Ki n)/[…]).
(§2) Further, the compounds of the invention may be tested in binding assays and functional activity assays by well known methods for other physiologically important receptors such as, but not limited to, the hERG channel, other serotonin receptors (specifically 5-HT1B receptors, lack of agonist activity at 5-HT2B receptors, 5-HT2C, 5-HT5, 5-HT6, and 5-HT7 receptors), dopaminergic receptors (specifically D1, D2, and D3), H1 receptors, GABAA receptors, adrenergic receptors and monoamine transporters.

Assay [2] addresses Dopamine Transporter (Homo sapiens, UniProt Q01959). Description: Dopamine transporter binding. The protocol:
as §1, §2

The target of assay [3] is Adrenergic alpha1B (Homo sapiens, UniProt P35368). Description: Adrenergic alpha1B binding. As for the experimental part:
as §1, §2

Assay [4] deals with Adrenergic alpha2C (Homo sapiens, UniProt P18825). As to the kind of experiment: Adrenergic alpha2C binding. As for the experimental part:
as §1, §2

Assay [5] addresses Serotonin Transporter (Homo sapiens, UniProt P31645). As to the kind of experiment: Serotonin transporter binding. As for the experimental part: as §1, §2
Assay [6] concerns native GABAA receptors. As to the kind of experiment: GABAA antagonism using native receptors in primary neuronal cultures (FLIPR calcium flux). In kind it is cell-based. Conditions: against 10 μM GABA, rat cortical embryonic neurons. As for the experimental part:
Activity of compounds on native GABAA receptors is evaluated by monitoring calcium fluxes using a 96 well format FLIPR® system (Fluorometric Imaging Plate Reader (FLIPR®, Molecular Devices). Briefly, cortical embryonic neurons are dissociated from E18 rat embryos and plated at optimum density into black-walled, transparent bottom poly-D-lysine coated 96-well FLIPR® plates. After loading the cells with a calcium sensitive dye (Fluo4-AM, Molecular Devices), the cells are bathed in a solution containing low chloride (chloride replaced by gluconate). Under these conditions activation of GABAA receptors causes an efflux of chloride ions (in the direction of the chemical gradient), which results in membrane depolarization and consequently activation of voltage gated calcium channels (VGCCs). Calcium influx through VGCCs is recorded and analysed offline using the FLIPR® system. For a pharmacological validation of the assay, concentration response curves (CRC) are recorded for the standard agonist (GABA) and standard antagonist (Gabazine). […]
The antagonist effects of compounds are quantified using 10-point dose response curves by comparing the peak fluorescent responses to the agonist GABA in the presence and absence of compound. […] Antagonist effects are calculated as a percent of the assay window. […]
A general note: Calcium flux is commonly read through the fluorescence of an indicator in the cells.

In assay [7] the target is Dopamine D2 (Homo sapiens, UniProt P14416). Description: Dopamine D2 binding. The protocol: as §1, §2
The target of assay [8] is T1, recombinant 5-HT2C receptors (human) (Homo sapiens, UniProt P28335).
T1 construct: expressed in transfected cells
Description: 5-HT2C competition binding assay ([125I]-(±)DOI, SPA). The protocol: [^125I]-(±)DOI binding experiments are carried out in SPA 96-well format. Membranes used in this assay are prepared from AV-12 cells stably expressing recombinant 5-HT2C receptors (human). The incubation is initiated by the addition of a mixture of WGA PVT SPA beads (0.5 mg/well, Perkin Elmer (MA, USA), RPNQ0001) and 2.5 μg membranes to assay buffer (50 mM Tris-HCl, 10 mM MgCl2, 0.5 mM EDTA, 10 μM pargyline, 0.1% ascorbic acid, pH7.4) containing 0.2 nM [[^125I]-(±)DOI and varying concentrations of the test compound (10 point concentration response curves). Non-specific binding is determined in the presence of 20 μM 1-(1-naphthyl)piperazine. Samples are incubated for 4 hr. at room temperature (22° C.) and then read in a microplate scintillation counter.
(§3) Curves are evaluated using a 4-parameter logistic nonlinear equation to obtain the concentration of competitor causing 50% inhibition of radioligand binding (IC50). Equilibrium dissociation constants (Ki) are calculated according to the equation Ki=IC50/(1+L/Kd), where L equals the concentration of radioligand used in the experiment and Kd equals the equilibrium dissociation constant of the radioligand for the receptor, determined from standard saturation analysis or homologous competition experiments. […]

In assay [9] the target is Adrenergic alpha1A (Homo sapiens, UniProt P35348). Description: Adrenergic alpha1A binding. As for the experimental part: as §1, §2
Assay [10] concerns the target Dopamine D3 (Homo sapiens, UniProt P35462). Description: Dopamine D3 binding. As for the experimental part:
as §1, §2

Assay [11] has as its target Norepinephrine Transport (Homo sapiens, UniProt P23975). Description: Norepinephrine transporter binding. As for the experimental part:
as §1, §2

Assay [12] has as its target 5-HT2B (Homo sapiens, UniProt P41595). Description: 5-HT2B binding (selectivity data). As for the experimental part:
as §1, §2

Assay [13] has as its target recombinant human 5-HT2A receptor (Homo sapiens, UniProt P28223). As to the kind of experiment: 5-HT2A competition binding assay ([3H]-Ketanserin, SPA). Further details: expressed in transfected cells. The protocol:
[^3H]-Ketanserin binding experiments are carried out in SPA 96-well format. Membranes used in this assay are prepared from AV-12 cells stably expressing recombinant 5-HT2A receptors (human). The incubation is initiated by the addition of a mixture of WGA YSi SPA beads (1 mg/well, Perkin Elmer (MA, USA), Product No. RPNQ0011) and 2 μg membranes to assay buffer (67 mM Tris, 0.5 mM EDTA; pH 7.6) containing 3.1 nM [^3H]-Ketanserin and varying concentrations of the test compound (10 point concentration response curves). Non-specific binding is determined in the presence of 20 μM 1-(1-naphthyl)piperazine. Samples are incubated for 4 hr. at room temperature (22° C.) and then read in a microplate scintillation counter.
as §3

For assay [14], the target named is H1 receptors (Homo sapiens, UniProt P35367). As to the kind of experiment: H1 receptor binding. As for the experimental part:
as §1, §2

The target in assay [15] is Dopamine D1 (Homo sapiens, UniProt P21728). As to the kind of experiment: Dopamine D1 binding. As for the experimental part: as §1, §2
Chain of Dopamine D1 (P21728 whole entry): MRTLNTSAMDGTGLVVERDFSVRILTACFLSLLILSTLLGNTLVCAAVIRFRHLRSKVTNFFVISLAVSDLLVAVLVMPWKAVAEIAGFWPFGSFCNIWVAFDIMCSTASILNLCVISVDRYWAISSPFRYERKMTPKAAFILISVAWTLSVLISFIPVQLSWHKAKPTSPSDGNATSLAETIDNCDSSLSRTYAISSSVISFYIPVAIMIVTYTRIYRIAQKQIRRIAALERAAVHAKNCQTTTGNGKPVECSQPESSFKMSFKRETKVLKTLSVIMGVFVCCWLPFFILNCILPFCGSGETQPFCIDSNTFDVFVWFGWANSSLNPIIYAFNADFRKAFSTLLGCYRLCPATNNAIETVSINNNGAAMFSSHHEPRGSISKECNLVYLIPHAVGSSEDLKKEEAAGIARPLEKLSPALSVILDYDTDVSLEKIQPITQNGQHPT

T1 sequence (P28335 33-458): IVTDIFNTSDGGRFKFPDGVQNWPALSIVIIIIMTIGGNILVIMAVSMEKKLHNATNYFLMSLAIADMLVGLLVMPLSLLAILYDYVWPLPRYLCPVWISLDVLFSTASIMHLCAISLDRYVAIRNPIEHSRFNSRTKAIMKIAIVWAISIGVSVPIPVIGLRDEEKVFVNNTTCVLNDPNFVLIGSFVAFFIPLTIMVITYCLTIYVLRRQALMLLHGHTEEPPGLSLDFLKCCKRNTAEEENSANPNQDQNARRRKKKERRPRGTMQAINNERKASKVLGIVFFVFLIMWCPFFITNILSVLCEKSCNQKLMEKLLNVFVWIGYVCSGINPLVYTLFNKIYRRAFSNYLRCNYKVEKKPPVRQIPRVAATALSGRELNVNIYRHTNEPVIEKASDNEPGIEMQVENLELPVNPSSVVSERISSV
Chain of H1 receptors (P35367 whole entry): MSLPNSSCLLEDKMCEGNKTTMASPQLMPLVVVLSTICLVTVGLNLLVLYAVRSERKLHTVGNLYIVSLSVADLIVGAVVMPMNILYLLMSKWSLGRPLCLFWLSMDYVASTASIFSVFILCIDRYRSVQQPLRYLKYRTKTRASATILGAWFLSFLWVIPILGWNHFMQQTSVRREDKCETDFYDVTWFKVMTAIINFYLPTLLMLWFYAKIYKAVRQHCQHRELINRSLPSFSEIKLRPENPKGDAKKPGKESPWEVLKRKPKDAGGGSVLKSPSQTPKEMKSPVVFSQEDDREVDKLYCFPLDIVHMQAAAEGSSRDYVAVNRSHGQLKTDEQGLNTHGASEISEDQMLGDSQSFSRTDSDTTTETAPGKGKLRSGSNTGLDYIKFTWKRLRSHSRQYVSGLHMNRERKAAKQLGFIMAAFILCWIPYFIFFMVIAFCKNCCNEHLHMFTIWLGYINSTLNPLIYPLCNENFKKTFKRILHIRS
Chain of Adrenergic alpha2A (P08913 whole entry): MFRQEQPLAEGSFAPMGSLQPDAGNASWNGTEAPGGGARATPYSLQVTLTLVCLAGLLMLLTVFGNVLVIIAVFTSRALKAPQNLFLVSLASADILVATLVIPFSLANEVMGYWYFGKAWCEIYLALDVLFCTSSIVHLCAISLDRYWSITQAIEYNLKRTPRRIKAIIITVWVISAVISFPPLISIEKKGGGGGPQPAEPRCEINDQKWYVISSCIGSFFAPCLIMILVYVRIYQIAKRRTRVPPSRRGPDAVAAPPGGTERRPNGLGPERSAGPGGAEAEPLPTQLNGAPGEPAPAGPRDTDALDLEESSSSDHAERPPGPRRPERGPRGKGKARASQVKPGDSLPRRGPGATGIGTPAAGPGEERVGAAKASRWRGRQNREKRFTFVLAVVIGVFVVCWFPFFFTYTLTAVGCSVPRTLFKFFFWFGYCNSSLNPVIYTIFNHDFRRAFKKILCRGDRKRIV
Chain of Adrenergic alpha1A (P35348 whole entry): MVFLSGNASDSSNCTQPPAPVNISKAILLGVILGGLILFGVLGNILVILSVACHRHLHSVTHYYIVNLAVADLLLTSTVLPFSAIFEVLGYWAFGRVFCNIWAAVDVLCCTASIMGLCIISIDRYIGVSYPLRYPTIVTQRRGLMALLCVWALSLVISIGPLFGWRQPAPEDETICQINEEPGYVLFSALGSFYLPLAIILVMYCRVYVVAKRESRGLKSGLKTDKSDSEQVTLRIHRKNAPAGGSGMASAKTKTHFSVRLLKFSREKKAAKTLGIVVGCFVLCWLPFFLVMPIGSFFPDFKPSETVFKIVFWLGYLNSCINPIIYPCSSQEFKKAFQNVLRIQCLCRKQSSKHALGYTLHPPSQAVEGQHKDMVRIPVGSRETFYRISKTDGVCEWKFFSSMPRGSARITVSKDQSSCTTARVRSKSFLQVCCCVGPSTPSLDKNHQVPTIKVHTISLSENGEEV
Chain of Dopamine Transporter (Q01959 whole entry): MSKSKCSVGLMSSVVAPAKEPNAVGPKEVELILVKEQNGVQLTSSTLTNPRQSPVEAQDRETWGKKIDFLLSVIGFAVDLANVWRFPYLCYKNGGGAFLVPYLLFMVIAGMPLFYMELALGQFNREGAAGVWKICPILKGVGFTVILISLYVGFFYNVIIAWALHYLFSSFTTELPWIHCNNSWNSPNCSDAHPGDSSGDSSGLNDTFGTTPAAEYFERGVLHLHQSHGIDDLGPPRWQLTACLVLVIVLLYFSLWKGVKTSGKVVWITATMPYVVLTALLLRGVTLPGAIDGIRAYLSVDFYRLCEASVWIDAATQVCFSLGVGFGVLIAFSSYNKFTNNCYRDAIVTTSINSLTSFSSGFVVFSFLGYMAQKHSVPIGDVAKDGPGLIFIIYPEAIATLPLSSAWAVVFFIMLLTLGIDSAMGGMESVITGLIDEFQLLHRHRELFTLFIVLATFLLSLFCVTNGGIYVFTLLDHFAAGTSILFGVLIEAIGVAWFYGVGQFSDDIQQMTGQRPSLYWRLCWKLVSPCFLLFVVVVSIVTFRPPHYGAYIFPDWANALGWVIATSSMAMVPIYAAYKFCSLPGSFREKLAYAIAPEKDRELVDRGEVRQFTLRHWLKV
Chain of Adrenergic alpha1B (P35368 whole entry): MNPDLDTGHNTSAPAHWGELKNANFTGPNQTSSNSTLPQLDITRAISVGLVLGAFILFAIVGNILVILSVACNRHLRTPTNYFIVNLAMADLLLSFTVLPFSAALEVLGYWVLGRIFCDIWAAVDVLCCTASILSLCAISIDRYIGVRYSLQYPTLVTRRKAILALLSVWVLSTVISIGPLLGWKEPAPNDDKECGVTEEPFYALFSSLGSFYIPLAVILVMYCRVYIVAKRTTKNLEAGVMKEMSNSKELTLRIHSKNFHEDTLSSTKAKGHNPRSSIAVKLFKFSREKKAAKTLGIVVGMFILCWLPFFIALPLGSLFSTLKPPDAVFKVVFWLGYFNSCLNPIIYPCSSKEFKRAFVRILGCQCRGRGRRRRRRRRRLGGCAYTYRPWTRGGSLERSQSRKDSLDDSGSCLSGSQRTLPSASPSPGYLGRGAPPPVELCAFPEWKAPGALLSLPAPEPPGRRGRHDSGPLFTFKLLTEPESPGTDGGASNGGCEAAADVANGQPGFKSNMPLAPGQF
Chain of 5-HT2B (P41595 whole entry, species assumed): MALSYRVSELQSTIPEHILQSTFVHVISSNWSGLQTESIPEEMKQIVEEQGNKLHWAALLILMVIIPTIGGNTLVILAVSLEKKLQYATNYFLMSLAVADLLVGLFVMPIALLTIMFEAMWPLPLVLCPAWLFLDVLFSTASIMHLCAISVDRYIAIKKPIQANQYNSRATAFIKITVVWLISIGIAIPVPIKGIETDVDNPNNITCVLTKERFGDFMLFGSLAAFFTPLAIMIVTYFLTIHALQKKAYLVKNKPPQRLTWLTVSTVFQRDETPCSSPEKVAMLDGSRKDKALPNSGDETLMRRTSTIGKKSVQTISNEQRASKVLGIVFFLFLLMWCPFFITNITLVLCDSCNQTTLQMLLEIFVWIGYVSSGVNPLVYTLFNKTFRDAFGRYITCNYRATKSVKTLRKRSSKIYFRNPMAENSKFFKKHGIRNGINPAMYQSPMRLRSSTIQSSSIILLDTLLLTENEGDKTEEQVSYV
Chain of Dopamine D3 (P35462 whole entry): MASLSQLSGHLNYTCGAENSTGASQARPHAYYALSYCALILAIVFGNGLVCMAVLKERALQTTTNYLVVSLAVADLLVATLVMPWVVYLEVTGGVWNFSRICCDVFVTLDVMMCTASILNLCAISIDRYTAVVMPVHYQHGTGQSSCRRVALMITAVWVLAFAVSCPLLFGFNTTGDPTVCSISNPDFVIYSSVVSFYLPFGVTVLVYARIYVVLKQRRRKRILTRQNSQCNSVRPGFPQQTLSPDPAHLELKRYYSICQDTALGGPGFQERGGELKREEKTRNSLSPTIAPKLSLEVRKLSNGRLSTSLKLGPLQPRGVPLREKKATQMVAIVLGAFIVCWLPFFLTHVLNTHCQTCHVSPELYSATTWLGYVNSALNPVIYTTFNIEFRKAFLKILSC
Chain of recombinant human 5-HT2A receptor (P28223 whole entry): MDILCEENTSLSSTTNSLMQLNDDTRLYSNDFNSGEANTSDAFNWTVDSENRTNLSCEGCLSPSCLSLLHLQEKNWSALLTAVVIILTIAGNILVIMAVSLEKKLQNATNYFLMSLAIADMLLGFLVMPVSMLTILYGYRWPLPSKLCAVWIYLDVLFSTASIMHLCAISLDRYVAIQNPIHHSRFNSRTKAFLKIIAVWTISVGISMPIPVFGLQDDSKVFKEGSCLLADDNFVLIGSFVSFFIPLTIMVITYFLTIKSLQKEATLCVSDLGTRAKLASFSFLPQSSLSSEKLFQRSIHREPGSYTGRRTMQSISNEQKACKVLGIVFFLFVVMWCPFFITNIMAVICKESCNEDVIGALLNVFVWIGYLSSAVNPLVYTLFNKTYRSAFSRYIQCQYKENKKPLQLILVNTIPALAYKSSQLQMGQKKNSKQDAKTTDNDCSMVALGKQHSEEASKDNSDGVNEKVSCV

As to `Cc1ccc2c(c1)Oc1sc(SC(C)C)cc1C(N1CCN(CC(C)(C)C(=O)O)CC1)=N2` [Example 2, 3-[4-(2-Isopropylsulfanyl-8-methyl-thieno[2,3-b][1,5]benzoxazepin-4-yl)piperazin-1-yl]-2,2-dimethyl-propanoic acid dihydrochloric acid salt], the negative-log Ki (pKi) is less than 5.05 in [1]; less than 6.06 in [2]; 4.98 in assay [3]; less than 5.17 in [4]; less than 6.19 in assay [5]; less than 5.44 in assay [7]. Besides, the negative logarithm of the Ki (pKi) in assay [8] is 6.11; in assay [9], less than 4.87; in assay [10] it was less than 5.23; in assay [11], less than 6.16; in [12], 6.12; in assay [13], 8.21. Further, the values for the pKi in [14] and in assay [15] were 6.05 and 5.42, respectively. Besides, the negative-log IC50 (pIC50) in assay [6] was 4.39.
